From ChEMBL document CHEMBL3813622, “Anion inhibition profiles of α-, β- and γ-carbonic anhydrases from the pathogenic bacterium Vibrio cholerae” (Bioorg Med Chem, 2016)
“And” between values parts separate entries of the source, which are not always exact repeats. Equal values may be shown once.

Experiments:
[1] = Inhibition of Helicobacter pylori alpha carbonic anhydrase preincubated for 15 mins by stopped-flow CO2 hydrase assay
[2] = Inhibition of Vibrio cholerae alpha carbonic anhydrase preincubated for 15 mins by stopped-flow CO2 hydrase assay
[3] = Inhibition of Vibrio cholerae carbonic anhydrase beta preincubated for 15 mins by stopped-flow CO2 hydrase assay
Carbonic anhydrase 1 = Carbonic anhydrase 1 (Homo sapiens, UniProt P00915); assay: Inhibition of human carbonic anhydrase 1 preincubated for 15 mins by stopped-flow CO2 hydrase assay
Chain of Carbonic anhydrase 1 (P00915 whole entry): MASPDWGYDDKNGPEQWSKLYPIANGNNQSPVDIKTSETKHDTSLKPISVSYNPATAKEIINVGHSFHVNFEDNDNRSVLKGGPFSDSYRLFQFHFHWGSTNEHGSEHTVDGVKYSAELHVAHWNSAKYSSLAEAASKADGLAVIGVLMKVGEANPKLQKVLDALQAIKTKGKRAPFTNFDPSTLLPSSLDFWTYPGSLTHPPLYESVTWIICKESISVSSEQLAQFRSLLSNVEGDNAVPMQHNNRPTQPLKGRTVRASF

Row | Structure (SMILES) | Ki [1] | Ki [2] | Ki [3] | Ki (Carbonic anhydrase 1)
1 | [N-]=[N+]=[N-] | 830 µM | 760 µM | 20.5 mM | –
2 | S=C(S)S [CARBONOTRITHIOIC ACID] | 380 µM | 88 µM | 7 mM | –
3 | Br [BROMIDE] | 2410 µM | 28000 µM | 7.4 mM | –
4 | F[B-](F)(F)F | > 200000 µM | > 200000 µM | > 200 mM | –
5 | N#CS [THIOCYANIC ACID] | 4100 µM | 820 µM | 9.5 mM | –
6 | CCN(CC)C(=S)S [DITIOCARB] | 5 µM | 43 µM | 0.73 mM | –
7 | O=S(=O)(O)F | – | – | 8.9 mM | –
8 | O=[Te](=O)(O)O | 340 µM | 14500 µM | 2.3 mM | –
9 | O=C(O)O [BICARBONATE] | – | 4640 µM and 5130 µM | 5.9 mM and 6.7 mM | –
10 | N#CO [CYANATE] | 600 µM | 75 µM | 7.1 mM | –
11 | O=S(O)O [SULFUROUS ACID] | 990 µM | 68 µM | > 200 mM | –
12 | O=[Se](=O)(O)O [SELENIC ACID] | 720 µM | 60800 µM | 3.4 mM | –
13 | O=[As](O)(O)c1ccccc1 [PHENYLARSONIC ACID] | 440 µM | 23 µM | 0.079 mM | –
14 | [O-][Cl+3]([O-])([O-])O [PERCHLORATE] | 10100 µM | > 200000 µM | > 200 mM | –
15 | O=S(=O)(O)O [SULFURIC ACID] | 820 µM | 850 µM | – | –
16 | O=[N+]([O-])O | 810 µM | 670 µM | 8.4 mM | –
17 | N#C[SeH] | 730 µM | 760 µM | 5.3 mM | 8.5 µM
18 | F [FLUORIDE ION] | 4080 µM | 800 µM | 8.7 mM | –
19 | Cl [HYDROCHLORIC ACID] | 2700 µM | 930 µM | 8.1 mM | –
20 | NS(=O)(=O)O [SULFAMATE] | 80 µM | 31 µM | 0.086 mM | –
21 | O=P(O)(O)OP(=O)(O)O [PYROPHOSPHORIC ACID] | 660 µM | 2960 µM | – | –
22 | O=S(=O)(O)OOS(=O)(=O)O | 920 µM | 84100 µM | 3.4 mM | –
23 | NS(N)(=O)=O [SULFAMIDE] | 73 µM | 8 µM | 0.054 mM | –
24 | I [IODIDE] | 6050 µM | 9730 µM | 9 mM | –
25 | S [HYDROGEN SULFIDE] | – | 74 µM | 21.3 mM | –
26 | O=S(=O)(O)NS(=O)(=O)O | 540 µM | 88200 µM | > 200 mM | –
27 | OB(O)c1ccccc1 [PHENYLBORONIC ACID] | 97 µM | 7 µM | 0.085 mM | –
28 | O=NO [NITROUS ACID] | 930 µM | 34100 µM | 9.1 mM | –
